Reference: the NIST ThermoML archive (doi:10.1016/j.fluid.2014.12.037)
± gives the expanded uncertainty stated by the source.

Columns and labels:
[1] = Molar enthalpy of transition or fusion; details: Crystal; DSC
[2] = Crystal; DTA

**Q.** Which results are given for `N=C(N)N.O=[N+]([O-])O` [guanidine nitrate]?
**A.** Molar enthalpy of transition or fusion [1]: 6.04 ± 0.146 kcal/mol; Normal melting temperature [2]: 214.02 ± 2 °C
